Results on 28 molecules are retold here after patent US5612360A, “Angiotensin II antagonists” (Eli Lilly and Company, priority 1993, dated 1997).

pKi: −log10 of the molar value.

One experiment concerns the target angiotensin II receptor. Nature of the experiment: Adrenal Glomerulosa Test System: displacement of I^125-angiotensin II binding to rat adrenal membranes. The settings on record: I^125-angiotensin II 0.1 nM, room temperature, 90 minutes, KI by Cheng Prusoff equation. The protocol: The compounds of Formula I are potent effective antagonists of angiotensin II. The ability of representative compounds of Formula I to block angiotensin II receptor binding was determined using the adrenal glomerulosa assay. The ability to antagonize angiotensininduced vasoconstriction was evaluated in the rabbit aorta test system.
Binding of I^125 -angiotensin II to adrenal membranes was routinely carried out in 96-well filtration plates. Adrenal membranes were prepared from the capsular portion (glomerulosal layer attached) of rat adrenal glands by differential centrifugation. Briefly, capsules were homogenized in a solution containing sucrose, 250 mM; MgCl2, 1 mM; and tris, 5 mM at pH 7.5 and 4° C. using a polytron at setting 5 for 20 seconds. The homogenate was stirred gently for 15 minutes at 4° C. and then centrifuged 10 minutes, at 1000×g, 4° C. The supernatant was centrifuged 30 minutes, at 30,000×g, 4° C., and the resulting pellet resuspended in 50 mM tris. Membrane preparations were stored in aliquots at -70° C. until used. Binding of I^125 -angiotensin II to adrenal membranes was performed at room temperature for 90 minutes in 96-well plates containing a hydrophilic polyvinylidene fluoride membrane (0.45 μm, Millipore-GV multiscreen). Each 250 μl incubate contained the following (final concentration): tris, 50 mM; NaCl, 120 mM; MgCl2, 5 mM; dithiothrietol 1 mM; bovine serum albumin, 0.05%; I^125 -angiotensin II, 0.1 nM; and adrenal membrane protein, 8-15 μg. Antagonists were added in concentrations from 10 nM to 100 μM. Non-specific binding was measured in the presence of 0.1 μM Sar1, Ile8 angiotensin II. Binding was terminated by vacuum filtration. Receptor-ligand complex trapped on filters was washed 3 times with 300 μl ice-cold wash solution (tris, 50 mM; NaCl, 120 mM; MgCl2, 5 mM; dithiothrietol, 1 mM). Filter discs were dried, punched out and counted in a gamma counter at 52% efficiency. Specific binding represented 96% of total binding (approximately 150 fmol angiotensin II/mg protein). The molar concentration (IC50) of the inhibitor that displaced 50% of the binding of 1125 angiotensin II for each compound was calculated using a 4 parameter logistics model (NonLin, SAS Institute). Data are expressed as KI (μm) calculated using the Cheng Prusoff equation. See Cheng et al. Biochemo Pharmacol. 22: 3099 (1973).
As a reminder, the pKi is the negative decadic logarithm of the Ki, by convention in mol/L. High values mean a small Ki, low ones a large Ki. In the case of `CCCCCCC(C(=O)O)n1ncc2cc(-c3ccccc3-c3nn[nH]n3)ccc21` (stereo not shown) [27 2H], the pKi was 5.27.

As to `CCCCCCC(C(=O)O)n1ccc2cc(-c3ccccc3C(=O)O)ccc21` (stereo not shown) [Example 1, 2[-5-(2-Carboxyphenyl)indol-1-yl]octanoic acid], the pKi is 5.41.

In turn, `CCCCCCC(C(=O)O)n1ccc2cc(-c3cccc(O)c3C(=O)O)ccc21` (stereo not shown) [Example 2, 2-[5-(2-Carboxy-3-hydroxyphenyl)indol-1-yl]octanoic acid] gave a pKi of 5.02.

Regarding `CCCCCCC(C(=O)O)n1cnc2cc(-c3ccccc3-c3nn[nH]n3)ccc21` (stereo not shown) [Example 3, 2-[5-[2-(2H-Tetrazol-5-yl)phenyl]-1H-benzimidazol-1-yl]octanoic acid], the pKi was 5.25.

As for `CCCCCCC(C(=O)O)n1c(C)nc2cc(-c3ccccc3-c3nnn[nH]3)ccc21` (stereo not shown) [Example 5], the pKi is 6.44.

`CCCCCCC(C(=O)O)n1c(C(F)(F)F)nc2cc(-c3ccccc3-c3nn[nH]n3)ccc21` (stereo not shown) [Example 6, 2-[5-[2-(2H-Tetrazol-5-yl)phenyl]-2-trifluoromethyl-1H-benzimidazol-1-yl]octanoic acid] had a pKi of 7.07.

For the molecule `CCCCCCC(C(=O)N1CCC[C@H]1C(=O)O)n1cnc2cc(-c3ccccc3-c3nn[nH]n3)ccc21` (stereo partly drawn) [Example 9, 1-[1-Oxo-2-[5-[2-(2H-tetrazol-5-yl)phenyl]-1H-benzimidazole-1-yl]octyl]-L-proline], the pKi is 7.54.

`CCCCCCC(C(=O)N1CC(O)C[C@H]1C(=O)O)n1cnc2cc(-c3ccccc3-c3nn[nH]n3)ccc21` (stereo partly drawn) [Example 13, 1-[1-oxo-2-[5-[2-(2H-tetrazol-5-yl)phenyl]-1H-benzimidazole-1-yl]octyl]-4-hydroxy-L-proline] gave a pKi of 8.38.

In the case of `CCCCCCC(c1nccn1C)n1cnc2cc(-c3ccccc3-c3nnn[nH]3)ccc21` (stereo not shown) [Example 14, 1-Methyl-2-[1-[5-2-(2H-Tetrazol-5-yl)phenyl-1H-benzimidazol-1-yl]heptyl]-1H-imidazole], the pKi is 5.97.

For `CCCCCCC(CC(=O)O)n1ccc2cc(-c3ccccc3-c3nn[nH]n3)ccc21` (stereo not shown) [Example 21, 3-[5-[2-(2H-Tetrazol-5-yl)phenyl]indol-1-yl]nonanoic Acid], the pKi was 5.65.

Molecule `CCCCCC(C(=O)O)n1ccc2cc(-c3ccccc3-c3nn[nH]n3)ccc21` (stereo not shown) [Example 22, 2-[5-[2-(2H-Tetrazol-5-yl)phenyl]indol-1-yl]heptanoic Acid] had a pKi of 5.76.

For `CCCCCCC(C(=O)O)n1cc(Cc2ccccc2)c2cc(-c3ccccc3-c3nn[nH]n3)ccc21` (stereo not shown) [Example 24, 2-[3-benzyl-5-[2-(2H-tetrazol-5-yl)phenyl]indol-1-yl]octanoic Acid], the pKi was 4.86.

`CCCCCCC(C(=O)O)n1cc(Br)c2cc(-c3ccccc3-c3nnn[nH]3)ccc21` (stereo not shown) [Example 26, 2-[3-Bromo-5-[2-[2H-tetrazol-5-yl)phenyl]indo-1-yl]octanoic Acid]: the pKi is 5.24.

Regarding `CCCCC(c1cccc(C(F)(F)F)c1)n1ccc2cc(-c3ccccc3-c3nn[nH]n3)ccc21` (stereo not shown) [Example 28, 5-[2-(2H-tetrazol-5-yl)phenyl]-1-[1-(3-trifluoromethylphenyl)-1-pentyl]indole], the pKi is 4.84.

As for `CCCCC(c1ccc(C(F)(F)F)cc1)n1ccc2cc(-c3ccccc3-c3nn[nH]n3)ccc21` (stereo not shown) [Example 29, 5-[2-(2H-tetrazol-5-yl)phenyl]-1-[1-(4-trifluoromethylphenyl)-1-pentyl]indole], the pKi is 4.72.

With `CCCCCCC(c1nnn[nH]1)n1cnc2cc(-c3ccccc3-c3nnn[nH]3)ccc21` (stereo not shown) [Example 34], the pKi was 7.21.

`CCCCCCC(C(=O)N(C)CC(=O)O)n1cnc2cc(-c3ccccc3-c3nn[nH]n3)ccc21` (stereo not shown) [Example 37, 1-[1-Oxo-2-[5-[2-(2H-tetrazol-5-yl]phenyl]-1H-benzimidazol-1]octyl]-N-methylglycine] had a pKi of 7.09.

In turn, `CCCCCCC(C(=O)N1CC2(C[C@H]1C(=O)O)OCCO2)n1cnc2cc(-c3ccccc3-c3nn[nH]n3)ccc21` (stereo partly shown) [Example 40] gave a pKi of 6.60.

On to `CCCCCCC(C(=O)N[C@@H](CC(=O)O)C(=O)O)n1cnc2cc(-c3ccccc3-c3nn[nH]n3)ccc21` (stereo partly drawn) [Example 41, N-[1-Oxo-2-[5-[2-(2H-tetrazol-5-yl]phenyl]-1H-benzimidazol-1-yl]octyl]-L-aspartic Acid], for which the pKi was 7.00.

With `CCCCCCC(C(=O)N[C@@H](CO)C(=O)O)n1cnc2cc(-c3ccccc3-c3nn[nH]n3)ccc21` (stereo partly drawn) [Example 42, N-[1-oxo-2-[5-[2-(2H-tetrazol-5-yl]phenyl]-1H-benzimidazol-1-yl]octyl]-L-serine], the pKi was 6.58.

`CCCCCCC(C(=O)N1CCC1C(=O)O)n1cnc2cc(-c3ccccc3-c3nn[nH]n3)ccc21` (stereo not shown) [Example 43] gave a pKi of 7.16.

In the case of `CCCCCCC(C(=O)N1CCC(C(=O)O)C1)n1cnc2cc(-c3ccccc3-c3nn[nH]n3)ccc21` (stereo not shown) [Example 44], the pKi was 6.70.

Another experiment concerns the target T1, rabbit aorta (Oryctolagus cuniculus, UniProt P34976).
T1 sequence (P34976 1-359): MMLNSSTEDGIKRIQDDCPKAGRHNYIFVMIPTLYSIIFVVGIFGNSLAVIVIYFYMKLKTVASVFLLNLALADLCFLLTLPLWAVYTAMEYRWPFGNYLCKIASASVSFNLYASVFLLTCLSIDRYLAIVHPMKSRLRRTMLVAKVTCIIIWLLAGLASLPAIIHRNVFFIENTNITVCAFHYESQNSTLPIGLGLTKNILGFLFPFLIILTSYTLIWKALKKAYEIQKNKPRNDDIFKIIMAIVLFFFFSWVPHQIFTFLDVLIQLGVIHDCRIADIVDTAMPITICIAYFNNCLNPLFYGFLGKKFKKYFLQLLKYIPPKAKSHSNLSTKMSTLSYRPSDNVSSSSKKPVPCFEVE
As to the kind of experiment: Rabbit Aorta Test System: antagonism of angiotensin II-induced contraction of thoracic aorta rings. In kind it is cell-based, New Zealand white rabbit. The settings on record: pA2 = -log KB; AII concentration response curve 10^-10 to 10^-7 M, 30 minutes incubation, 37° C.
With “1-[5(and 6)-[2-(2H-Tetrazol-5-yl)phenyl]-2-pentyl-1H-benzimidazol-1-yl]acetic acid [Example 61]”, the “Rabbit Aorta (pA2)” value amounted to 5.4.

With “2-[1-Hexyl-5-[2-(2H-tetrazol-5-yl)phenyl]-1H-benzimidazol-2-yl]propionic Acid [Example 30]”, the “Rabbit Aorta (pA2)” value is recorded as 6.5.

Regarding “4-Butoxy-2-[5(and 6)-[2-(2H-tetrazol-5-yl)phenyl]-1H-benzimidazol-1-yl]-butanoic acid [Example 11]”, the “Rabbit Aorta (pA2)” value was 6.7.

On to `CCCCCC#CC(C(=O)O)n1cnc2cc(-c3ccccc3-c3nn[nH]n3)ccc21` (stereo not shown) [Example 16], for which the “Rabbit Aorta (pA2)” value came to 7.2.

With `CCCC/C=C/C(C(=O)O)n1ccc2cc(-c3ccccc3-c3nn[nH]n3)ccc21` (stereo not drawn) [Example 25A, 2-[5-[2-(2H-Tetrazol-5-yl)phenyl]indol-1-yl]-3-trans-octenoic acid], the “Rabbit Aorta (pA2)” value is 6.5.

`CCCC/C=C\C(C(=O)O)n1ccc2cc(-c3ccccc3-c3nn[nH]n3)ccc21` (stereo not drawn) [Example 25B, 2-[5-[2-(2H-tetrazol-5-yl)phenyl]indol-1-yl]-3-cis-octenoic acid]: the “Rabbit Aorta (pA2)” value came out at 7.3.
